Measured values reported in BigSolDB 2.1.

Question: What does the source list for `Cc1[nH]nc2cc([N+](=O)[O-])ccc12`?
Answer: solubility (mole fraction) (in DMF, 278.15 K): 0.149; solubility (mole fraction) (in DMF, 283.15 K): 0.161; solubility (mole fraction) (in DMF, 288.15 K): 0.177; solubility (mole fraction) (in DMF, 293.15 K): 0.195; solubility (mole fraction) (in DMF, 298.15 K): 0.215; solubility (mole fraction) (in DMF, 303.15 K): 0.236; solubility (mole fraction) (in DMF, 308.15 K): 0.259; solubility (mole fraction) (in DMF, 313.15 K): 0.283; solubility (mole fraction) (in DMF, 318.15 K): 0.309; solubility (mole fraction) (in DMF, 323.15 K): 0.337; solubility (mole fraction) (in DMF, 328.15 K): 0.371; solubility (mole fraction) (in THF, 278.15 K): 0.0579; solubility (mole fraction) (in THF, 283.15 K): 0.0615; solubility (mole fraction) (in THF, 288.15 K): 0.0671; solubility (mole fraction) (in THF, 293.15 K): 0.0726; solubility (mole fraction) (in THF, 298.15 K): 0.0781; solubility (mole fraction) (in THF, 303.15 K): 0.0845; solubility (mole fraction) (in THF, 308.15 K): 0.0903; solubility (mole fraction) (in THF, 313.15 K): 0.097; solubility (mole fraction) (in THF, 318.15 K): 0.105; solubility (mole fraction) (in THF, 323.15 K): 0.113; solubility (mole fraction) (in THF, 328.15 K): 0.123; solubility (mole fraction) (in acetone, 278.15 K): 0.0251; solubility (mole fraction) (in acetone, 283.15 K): 0.0295; solubility (mole fraction) (in acetone, 288.15 K): 0.0336; solubility (mole fraction) (in acetone, 293.15 K): 0.0382; solubility (mole fraction) (in acetone, 298.15 K): 0.0433; solubility (mole fraction) (in acetone, 303.15 K): 0.0481; solubility (mole fraction) (in acetone, 308.15 K): 0.0538; solubility (mole fraction) (in acetone, 313.15 K): 0.0595; solubility (mole fraction) (in acetone, 318.15 K): 0.0661; solubility (mole fraction) (in acetone, 323.15 K): 0.0738; solubility (mole fraction) (in acetone, 328.15 K): 0.0829; solubility (mole fraction) (in acetonitrile, 278.15 K): 0.0093; solubility (mole fraction) (in acetonitrile, 283.15 K): 0.0109; solubility (mole fraction) (in acetonitrile, 288.15 K): 0.0123; solubility (mole fraction) (in acetonitrile, 293.15 K): 0.0139; solubility (mole fraction) (in acetonitrile, 298.15 K): 0.0156; solubility (mole fraction) (in acetonitrile, 303.15 K): 0.0174; solubility (mole fraction) (in acetonitrile, 308.15 K): 0.019; solubility (mole fraction) (in acetonitrile, 313.15 K): 0.0206; solubility (mole fraction) (in acetonitrile, 318.15 K): 0.0222; solubility (mole fraction) (in acetonitrile, 323.15 K): 0.0239; solubility (mole fraction) (in acetonitrile, 328.15 K): 0.0254; solubility (mole fraction) (in ethanol, 278.15 K): 0.0042; solubility (mole fraction) (in ethanol, 283.15 K): 0.0051; solubility (mole fraction) (in ethanol, 288.15 K): 0.0059; solubility (mole fraction) (in ethanol, 293.15 K): 0.007; solubility (mole fraction) (in ethanol, 298.15 K): 0.0083; solubility (mole fraction) (in ethanol, 303.15 K): 0.01; solubility (mole fraction) (in ethanol, 308.15 K): 0.012; solubility (mole fraction) (in ethanol, 313.15 K): 0.014; solubility (mole fraction) (in ethanol, 318.15 K): 0.0164; solubility (mole fraction) (in ethanol, 323.15 K): 0.0194; solubility (mole fraction) (in ethanol, 328.15 K): 0.0227; solubility (mole fraction) (in ethyl acetate, 278.15 K): 0.016; solubility (mole fraction) (in ethyl acetate, 283.15 K): 0.0183; solubility (mole fraction) (in ethyl acetate, 288.15 K): 0.021; solubility (mole fraction) (in ethyl acetate, 293.15 K): 0.0232; solubility (mole fraction) (in ethyl acetate, 298.15 K): 0.0255; solubility (mole fraction) (in ethyl acetate, 303.15 K): 0.0295; solubility (mole fraction) (in ethyl acetate, 308.15 K): 0.0328; solubility (mole fraction) (in ethyl acetate, 313.15 K): 0.0363; solubility (mole fraction) (in ethyl acetate, 318.15 K): 0.0394; solubility (mole fraction) (in ethyl acetate, 323.15 K): 0.043; solubility (mole fraction) (in ethyl acetate, 328.15 K): 0.0456; solubility (mole fraction) (in n-propanol, 278.15 K): 0.0051; solubility (mole fraction) (in n-propanol, 283.15 K): 0.0061; solubility (mole fraction) (in n-propanol, 288.15 K): 0.0073; solubility (mole fraction) (in n-propanol, 293.15 K): 0.0084; solubility (mole fraction) (in n-propanol, 298.15 K): 0.0096; solubility (mole fraction) (in n-propanol, 303.15 K): 0.0108; solubility (mole fraction) (in n-propanol, 308.15 K): 0.012; solubility (mole fraction) (in n-propanol, 313.15 K): 0.0136; solubility (mole fraction) (in n-propanol, 318.15 K): 0.0155; solubility (mole fraction) (in n-propanol, 323.15 K): 0.0176; solubility (mole fraction) (in n-propanol, 328.15 K): 0.0204; solubility (mole fraction) (in water, 278.15 K): 2.1e-05; solubility (mole fraction) (in water, 283.15 K): 2.7e-05; solubility (mole fraction) (in water, 288.15 K): 3.6e-05; solubility (mole fraction) (in water, 293.15 K): 4.71e-05; solubility (mole fraction) (in water, 298.15 K): 6.31e-05; solubility (mole fraction) (in water, 303.15 K): 8.01e-05; solubility (mole fraction) (in water, 308.15 K): 9.91e-05; solubility (mole fraction) (in water, 313.15 K): 0.000123; solubility (mole fraction) (in water, 318.15 K): 0.000147; solubility (mole fraction) (in water, 323.15 K): 0.000179; solubility (mole fraction) (in water, 328.15 K): 0.000218
